Reference: article PMC7203153, “Rational identification and characterisation of peptide ligands for targeting polysialic acid” (Scientific Reports, 2020)
Marks after values point to notes of the source that are not given here. Where a SMILES comes first, the peptide text is derived from it.

Assay: Competitive microarray selectivity screening with α-2,8/9-PSA
Type: binding, Escherichia coli
Conditions: 10% competing α-2,8/9-PSA
Experimental: Competitive microarray screening with α-2,8/9-PSA was conducted in order to assess selective binding of peptides to α-2,8-PSA. The definition of percent selectivity at 10% competing glycan was applied to enable selectivity comparisons amongst a larger set of peptides[25] […] However, the use of an isomeric polymer is a more stringent assessment of selectivity; here, selective binding is guided by three-dimensional conformation and not additionally by differences in functional groups.
Peptide library synthesis, microarray preparation, and microarray screening were performed as described previously[25] with the following specifications. Siglec-related sequences were N-terminally acetylated to match the charge of the corresponding protein fragment. All peptides were printed in triplicate (60 nL spots), and each initial affinity screening was carried out at least three times. Screening was conducted with 10 μM colominic acid (CA; 5 mL per microarray), the Escherichia coli homolog of α-2,8-PSA identical in structure to human-derived PSA[67], and with antibody-based chemiluminescent detection of CA. For selectivity screening, microarrays were challenged with 10 μM CA with 0, 0.1, 1, and 10 μM α-2,8/9-PSA in separate conditions (5 mL total volume each), where molar concentrations were based on molecular weight estimation of synthesized 2,8/9-PSA (details on α-2,8/9-PSA production, purification, and analysis are provided in Supplementary Information). Selectivity screening with monomeric sialic acid was conducted with mass and molar equivalents of N-acetylneuraminic acid (Rose Scientific, Ltd.) along with 10 μM CA (5 mL total volume each). The mass equivalent amount of sialic acid (specifically, 970 μM sialic acid for a given volume of 10 μM CA) was calculated for CA of an average degree of polymerization of 100. For study of pH-dependent binding, affinity screening with CA was performed using PBS buffers of pH 6.0, 7.0, 7.4, and 8.0 (10 mM phosphate, 100 mM NaCl). The impact of NaCl on peptide binding was assessed at pH 7.4 with 0, 100, and 200 mM NaCl. […]

Row | Compound | selectivity mark in Table 1
1 | CC(=O)N[C@@H](CC(N)=O)C(=O)N[C@@H](CCCNC(=N)N)C(=O)N[C@H](C(=O)N[C@H](C(=O)N[C@@H](CC(C)C)C(=O)N[C@@H](CCCNC(=N)N)C(=O)N[C@@H](CC(N)=O)C(=O)N[C@@H](CC(C)C)C(=O)NCC(=O)N[C@@H](CC(N)=O)C(=O)NCC(=O)N[C@H](C(=O)N[C@@H](CO)C(=O)N[C@@H](CC(C)C)C(=O)N1CCC[C@H]1C(N)=O)[C@@H](C)O)C(C)C)[C@@H](C)O [II-P336] (Ac-NRTVLRNLGNGTSLP-NH2) | II-P336* (Peptides with selectivity >80%)
2 | AISSPLLKNPFRGGGS [II-P214, phage display screening peptide with W8K mutation] | II-P214* (Peptides with selectivity >80%)

Same assay, conditions: binding to 10 μM α-2,8-PSA (CA) with 10% competing α-2,8/9-PSA; ± SD of triplicate intra-assay measurements; SD

Row | Compound | % selectivity
3 | AALSPRRTRPSTSHF [I-P85] | 59 ± 5%
4 | AISSPLLRNPFRGGGS [II-P213, phage display screening peptide with W8R mutation] | 66 ± 9%
5 | FRVKICRKEARKRAA [I-P278] | 43 ± 8%
6 | FSRKGVSAQRTVRLR [I-P103] | 55 ± 11%
7 | GGKGGGKGGGKGGGK [I-P380, de novo peptide composed of lysine and glycine residues] | 56 ± 7%
8 | GRTSAKTGAPVATNN [I-P344, Siglec-11-derived peptide with P5A mutation] | 85 ± 8%
9 | GRTSPKAGAPVATNN [I-P346, Siglec-11-derived peptide with T7A mutation] | 91 ± 15%
10 | GSGSGTDFTLKISRV [II-P35, peptide designed from mAb735] | 53 ± 6%
11 | KGGGKGGGKGGGKGG [I-P379, de novo peptide composed of lysine and glycine residues] | 61 ± 7%
12 | KGKGKGKGKGKGKGK [I-P378, de novo designed peptide with alternating Lys and Gly residues] | 60 ± 9%
13 | KIHTGQPLRGPGFGL [I-P323] | 86 ± 8%
14 | LKVTALTKKPDVYIP [I-P62] | 67 ± 17%
15 | LSNAFFLKVTALTKK [I-P59] | 52 ± 10%
16 | LSPRRTRPSTSHFSV [I-P86] | 62 ± 10%
17 | NAFFLKVTALTKKPD [I-P60] | 70 ± 18%
18 | PGSGNTKYNEKFKGK [II-P77, peptide designed from mAb735] | 49 ± 5%
19 | QELHYASLSFQGLRL [I-P307] | 80 ± 14%
20 | RKGVSAQRTVRLRVA [I-P104] | 45 ± 4%
21 | TLPAILQASGTRGGGS [II-P145, phage display screening peptide with S8A mutation] | 81 ± 16%
22 | VDFSRKGVSAQRTVR [I-P102] | 59 ± 10%
23 | VKICRKEARKRAAAE [I-P279] | 46 ± 12%
24 | VPYTFGGGTRLEIKG [II-P50, peptide designed from mAb735] | 71 ± 9%
25 | WFKGKTSPKTGAPVA [I-P333, Siglec-11-derived peptide with R5K mutation] | 59 ± 2%
26 | WFKGRTSPKTGAPVA [I-P330, Siglec-11-derived peptide] | 35 ± 1%
27 | WGPRTLGLELRGVRA [I-P143] | 37 ± 1%
28 | YSEIKIHTGQPLRGP [I-P321] | 85 ± 18%
29 | YWFKGRTSPKTGAPV [I-P23] | 43 ± 3%

Assay: Peptide microarray affinity screening against α-2,8-PSA (colominic acid)
Type: binding, Escherichia coli
Conditions: 10 μM CA, pH 7.4
Experimental: Peptide library synthesis, microarray preparation, and microarray screening were performed as described previously[25] with the following specifications. Siglec-related sequences were N-terminally acetylated to match the charge of the corresponding protein fragment. All peptides were printed in triplicate (60 nL spots), and each initial affinity screening was carried out at least three times. Screening was conducted with 10 μM colominic acid (CA; 5 mL per microarray), the Escherichia coli homolog of α-2,8-PSA identical in structure to human-derived PSA[67], and with antibody-based chemiluminescent detection of CA. For selectivity screening, microarrays were challenged with 10 μM CA with 0, 0.1, 1, and 10 μM α-2,8/9-PSA in separate conditions (5 mL total volume each), where molar concentrations were based on molecular weight estimation of synthesized 2,8/9-PSA (details on α-2,8/9-PSA production, purification, and analysis are provided in Supplementary Information). Selectivity screening with monomeric sialic acid was conducted with mass and molar equivalents of N-acetylneuraminic acid (Rose Scientific, Ltd.) along with 10 μM CA (5 mL total volume each). The mass equivalent amount of sialic acid (specifically, 970 μM sialic acid for a given volume of 10 μM CA) was calculated for CA of an average degree of polymerization of 100. For study of pH-dependent binding, affinity screening with CA was performed using PBS buffers of pH 6.0, 7.0, 7.4, and 8.0 (10 mM phosphate, 100 mM NaCl). The impact of NaCl on peptide binding was assessed at pH 7.4 with 0, 100, and 200 mM NaCl.
Microarray image and data analysis was performed as described. […] Of the triplicate experiments used to generate mean microarray affinity intensities in standard conditions (within each of which 762 peptides were represented in triplicate), 225 out of 762 values in one of these three experiments were derived from raw data previously reported, but were alternatively analysed as stated. Peptide isoelectric points were calculated with the EMBOSS iep program.

Row | Compound | change in microarray binding with 200 mM vs 100 mM NaCl
30 | CC(=O)N[C@@H](CCCCN)C(=O)N[C@@H](CC(=O)O)C(=O)N1CCC[C@H]1C(=O)N[C@@H](CO)C(=O)N[C@@H](Cc1ccc(O)cc1)C(=O)N[C@@H](CO)C(=O)N[C@@H](CC(C)C)C(=O)N[C@@H](CCC(N)=O)C(=O)N[C@H](C(=O)N[C@@H](CCC(N)=O)C(=O)N[C@@H](CCCNC(=N)N)C(=O)N[C@@H](CCC(N)=O)C(=O)N[C@H](C(=O)N1CCC[C@H]1C(=O)N[C@H](C(N)=O)C(C)C)C(C)C)C(C)C [I-P2] (Ac-KDPSYSLQVQRQVPV-NH2) | did not display any change in binding
31 | CC(=O)N[C@@H](CCC(=O)O)C(=O)N[C@@H](Cc1c[nH]cn1)C(=O)NCC(=O)NCC(=O)NCC(=O)N[C@@H](CC(C)C)C(=O)NCC(=O)N[C@@H](CC(C)C)C(=O)NCC(=O)N[C@@H](C)C(=O)N[C@@H](C)C(=O)N[C@@H](CC(C)C)C(=O)NCC(=O)N[C@@H](C)C(=O)NCC(N)=O [I-P264] (Ac-EHGGGLGLGAALGAG-NH2) | did not display any change in binding

Assay: Fluorescence anisotropy (FA) assay of peptide–PSA binding
Set-up: species or system Escherichia coli
Conditions: FA titration; N-acetylated, C-terminally TAMRA-labelled peptide 20 nM; CA 0–1500 μM; PBS pH 7.4 (10 mM phosphate, 100 mM NaCl); 3 h, ~20 °C; four-parameter logistic fit; at least two independent experiments, at least triplicate; * = accuracy likely poor (SE > KD)
Experimental: Peptides (Table 2) were synthesized at >95% purity (confirmed with HPLC) by Biomatik (see Supplementary Information). All peptides were N-terminally acetylated and C-terminally labelled with tetramethylrhodamine dye (TAMRA). TAMRA was chosen as a label due to its pH insensitivity compared to FAM (fluorescein) and related dyes commonly used for fluorescence assays. Experiments were conducted in black 384-well plates with non-binding surface (NBS, Corning, Inc.) to minimize background binding and enhance signal-to-noise ratio in the fluorescence-based binding assay. Titrations were carried out through addition of TAMRA-labelled peptide (8 μL, final concentration 20 nM) to CA (72 μL, final concentrations 0–1500 μM) in PBS, pH 7.4 (10 mM phosphate, 100 mM NaCl), and solutions were incubated with agitation to equilibrium at room temperature (3 h, ~20 °C). Parallel and perpendicular intensities were subsequently measured at 530 nm excitation (band width 5 nm) and 580 nm emission (band width 20 nm) in fluorescence polarization mode with a Tecan Infinite M1000 Pro plate reader. Total fluorescence intensities were also measured as a control for fluorophore properties with target binding; fluorescence intensities of free peptide were determined to be approximately equivalent to intensities with peptide–CA mixtures. At higher concentrations of free CA (control with no peptide addition), attenuation of detected light differed in parallel and perpendicular planes, so respective intensities were subtracted from peptide–CA intensities prior to anisotropy calculations. […] Unique samples were screened in at least triplicate within each titration experiment, and each peptide titration was carried out at least twice. In experimental repeats, peptide locations on plates were varied to prevent location-specific effects, if any, and different combinations of peptides were assessed at once. Anisotropies were calculated from corrected parallel and perpendicular intensities, and values were fit to the four-parameter logistic binding model[70] in MATLAB. Prior to curve fitting, anisotropy values for each peptide were transformed through subtraction of minimum values to enhance comparison between peptides. The resulting translations in binding curves were identical, within error, to change in anisotropy curves obtained through subtraction of anisotropy of free labelled peptide. Bmax and KD values obtained were used in the calculation of Bmax/KD ratios for comparison to microarray intensity values, and the Pearson correlation coefficient (r) was determined.

Row | Compound | Kd
32 | CC(=O)N[C@@H](CCCCN)C(=O)N[C@@H](CC(=O)O)C(=O)N1CCC[C@H]1C(=O)N[C@@H](CO)C(=O)N[C@@H](Cc1ccc(O)cc1)C(=O)N[C@@H](CO)C(=O)N[C@@H](CC(C)C)C(=O)N[C@@H](CCC(N)=O)C(=O)N[C@H](C(=O)N[C@@H](CCC(N)=O)C(=O)N[C@@H](CCCNC(=N)N)C(=O)N[C@@H](CCC(N)=O)C(=O)N[C@H](C(=O)N1CCC[C@H]1C(=O)N[C@H](C(N)=O)C(C)C)C(C)C)C(C)C [I-P2] (Ac-KDPSYSLQVQRQVPV-NH2) | 405 µM
33 | CC[C@H](C)[C@H](NC(C)=O)C(=O)N[C@@H](Cc1ccc(O)cc1)C(=O)N1CCC[C@H]1C(=O)NCC(=O)N[C@@H](CO)C(=O)NCC(=O)N[C@@H](CC(N)=O)C(=O)N[C@H](C(=O)N[C@@H](CCCCN)C(=O)N[C@@H](Cc1ccc(O)cc1)C(=O)N[C@@H](CC(N)=O)C(=O)N[C@@H](CCC(=O)O)C(=O)N[C@@H](CCCCN)C(=O)N[C@@H](Cc1ccccc1)C(=O)N[C@@H](CCCCN)C(N)=O)[C@@H](C)O [II-P76] (Ac-IYPGSGNTKYNEKFK-NH2) | 1290 µM
34 | CC(=O)N[C@@H](CC(N)=O)C(=O)N[C@@H](CCCNC(=N)N)C(=O)N[C@H](C(=O)N[C@H](C(=O)N[C@@H](CC(C)C)C(=O)N[C@@H](CCCNC(=N)N)C(=O)N[C@@H](CC(N)=O)C(=O)N[C@@H](CC(C)C)C(=O)NCC(=O)N[C@@H](CC(N)=O)C(=O)NCC(=O)N[C@H](C(=O)N[C@@H](CO)C(=O)N[C@@H](CC(C)C)C(=O)N1CCC[C@H]1C(N)=O)[C@@H](C)O)C(C)C)[C@@H](C)O [II-P336] (Ac-NRTVLRNLGNGTSLP-NH2) | 577 µM

Same assay, conditions: PSA concentration 1500 µM; ± inter-assay SD, at least two independent experiments; SD

Row | Compound | Non-adjusted anisotropy
35 | CC(=O)N[C@@H](CCCCN)C(=O)N[C@@H](CC(=O)O)C(=O)N1CCC[C@H]1C(=O)N[C@@H](CO)C(=O)N[C@@H](Cc1ccc(O)cc1)C(=O)N[C@@H](CO)C(=O)N[C@@H](CC(C)C)C(=O)N[C@@H](CCC(N)=O)C(=O)N[C@H](C(=O)N[C@@H](CCC(N)=O)C(=O)N[C@@H](CCCNC(=N)N)C(=O)N[C@@H](CCC(N)=O)C(=O)N[C@H](C(=O)N1CCC[C@H]1C(=O)N[C@H](C(N)=O)C(C)C)C(C)C)C(C)C [I-P2] (Ac-KDPSYSLQVQRQVPV-NH2) | 35.8 ± 11.5

Same assay, conditions: from FA curve fits, among the peptides characterised with FA

Row | Compound | Bmax/KD ratio (binding potential)
36 | CC(=O)N[C@@H](CC(N)=O)C(=O)N[C@@H](CCCNC(=N)N)C(=O)N[C@H](C(=O)N[C@H](C(=O)N[C@@H](CC(C)C)C(=O)N[C@@H](CCCNC(=N)N)C(=O)N[C@@H](CC(N)=O)C(=O)N[C@@H](CC(C)C)C(=O)NCC(=O)N[C@@H](CC(N)=O)C(=O)NCC(=O)N[C@H](C(=O)N[C@@H](CO)C(=O)N[C@@H](CC(C)C)C(=O)N1CCC[C@H]1C(N)=O)[C@@H](C)O)C(C)C)[C@@H](C)O [II-P336] (Ac-NRTVLRNLGNGTSLP-NH2) | highest
